This note sets out measurements from patent publication US20250241926A1, “HETEROCYCLIC COMPOUNDS FOR USE IN THE TREATMENT OF CANCER” (ARTIOS PHARMA LIMITED, priority 2021, published 2025).

This assay has as its target T1, Human Polθ polymerase domain (aa1820-2590) (Homo sapiens, UniProt O75417).
T1 construct: Human Polθ polymerase domain (aa1820-2590) was expressed in E. Coli; made in house; host or cells: E. coli
T1 sequence (O75417 1820-2590): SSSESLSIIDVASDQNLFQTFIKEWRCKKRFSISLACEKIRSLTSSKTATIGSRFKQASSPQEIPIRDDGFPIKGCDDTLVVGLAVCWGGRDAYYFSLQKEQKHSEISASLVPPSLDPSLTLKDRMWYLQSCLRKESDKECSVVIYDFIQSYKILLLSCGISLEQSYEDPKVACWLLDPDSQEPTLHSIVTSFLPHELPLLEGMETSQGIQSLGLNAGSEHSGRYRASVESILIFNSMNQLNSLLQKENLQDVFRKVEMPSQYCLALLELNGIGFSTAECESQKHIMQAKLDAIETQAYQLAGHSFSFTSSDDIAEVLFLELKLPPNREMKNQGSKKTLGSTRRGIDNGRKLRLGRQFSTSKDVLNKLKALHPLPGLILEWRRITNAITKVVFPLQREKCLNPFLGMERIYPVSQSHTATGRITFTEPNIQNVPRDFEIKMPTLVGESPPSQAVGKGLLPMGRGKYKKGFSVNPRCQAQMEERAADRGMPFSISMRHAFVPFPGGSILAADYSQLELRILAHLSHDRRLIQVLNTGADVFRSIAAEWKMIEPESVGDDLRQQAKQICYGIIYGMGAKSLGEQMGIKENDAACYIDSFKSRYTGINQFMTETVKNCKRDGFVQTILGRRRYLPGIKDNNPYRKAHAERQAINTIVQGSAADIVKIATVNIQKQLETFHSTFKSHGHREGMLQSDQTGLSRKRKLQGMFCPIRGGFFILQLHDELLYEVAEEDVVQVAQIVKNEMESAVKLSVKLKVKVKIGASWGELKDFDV
As to the kind of experiment: Polθ Polymerase Domain Kinact/Kl Assay (PicoGreen). The settings on record: covalent inhibitors, kobs vs [I] fit, 0.8 nM Polθ, 100 nM DNA substrate, read-out: Kinact/KI. It is filed as biochemical. As to the method:
Polθ Polymerase Domain Kinact/Kl Assay
A PicoGreen assay was used to measure the Kinact and Kl values of covalent compounds that inhibit the activity of Polθ in vitro.
Human Polθ polymerase domain (aa1820-2590) was expressed in E. Coli, purified, aliquoted and stored at −80° C. until required. Polθ substrate was generated from a 1.2:1 mix of DNA II Short to DNA II Long to give a final concentration of […] substrate in annealing buffer (20 mM Tris pH 7.5, 50 mM NaCl). The substrate was heated in 50 mL aliquots to 95° C. in a heating block for 5 min before the heating block switched off, the reaction left to cool to rt and stored at −20° C. until required.
Assay measurements were performed with 1× buffer comprising 25 mM Tris pH 7.5, 12.5 mM NaCl, […], 5% (v/v) glycerol, 0.01% v/v Triton x-100, 0.1 mg/ml BSA, 1 mM DTT. Test compounds were prepared by dilution in 100% DMSO to give a 12 μM intermediate stock of each (100× final top concentration). 100 nL of 23× 1:1.5-fold serial dilutions and a DMSO only control were dispensed using the Tecan dispenser into Greiner 384 well black low volume plates (product code 784076). DMSO concentration was maintained at 1% of the final assay volume by back filling with DMSO.
2× Working stock of substrate (200 nM of DNA substrate and […] dNTPs) and enzyme (1.4 nM Polθ) were made up in assay buffer. 5 μL/well of both enzyme and substrate 2× solutions were dispensed using a Tempest dispenser (Formulatrix) into assay plates that had been pre-dispensed with compound to give a final assay concentration of 100 nM DNA substrate, […] dNTPs and 0.8 nM Polθ. To stop the reaction, […] of a solution containing 25 mM Tris-HCl pH 7.5 and 20 mM EDTA was added at […] (t=0, 2.5, 5, 7.5, 10, 12.5, 15, 20, 25, 30, 35, 40, 45, 50, 55 and 60 min) using the Tempest's time delay function. The plates were covered during the time course to prevent evaporation. After completing the assay, 5 μL of detection reagent (25 mM Tris-HCl pH 7.5 and 2.5% (v/v) PicoGreen) was dispensed into the wells using a Tempest liquid handler (Formulatrix) and plates subsequently read on the CLARIOstar Plus (BMG Labtech) using the default optical settings for fluorescein and the auto gain/focus settings.
All data analysis was carried out using GraphPad Prism V. 8 (GraphPad Software Inc, San Diego, CA) Time course data for each inhibitor concentration was fitted to equation 1 to determine kobs values.^1 Any time points where the control (DMSO alone) reaction was no longer linear were excluded from the analysis.
A secondary plot of kobs vs [I] is used to determine the Kinact and Kl parameters (for a 2-step covalent inhibitor) by fitting to equation 2.1
[formula] • 1) Evaluation of Enzyme Inhibitors in Drug Discovery (Ch9), R. A Copeland, Wiley, 2nd Edition 2013.

On to `C=CC(=O)N1CC2(CN(CCN3CC[C@H](Nc4nc(C)cc(C(F)(F)F)c4C#N)C(=O)N(C)c4ccc(Cl)cc43)C2)C1` [Example 7, (S)-2-((6-(2-(6-Acryloyl-2,6-diazaspiro[3.3]heptan-2-yl)ethyl)-8-chloro-1-methyl-2-oxo-1,2,3,4,5,6-hexahydrobenzo[b][1,4]diazocin-3-yl)amino)-6-methyl-4-(trifluoromethyl)nicotinonitrile], for which the kinact/KI was 460000 M⁻¹ s⁻¹.
Next, `C=CC(=O)N1CC2(CCN(CCN3CC[C@H](Nc4nc(C)cc(C(F)(F)F)c4C#N)C(=O)N(C)c4cccc(F)c43)CC2)C1` [Example 8, (S)-2-((6-(2-(2-Acryloyl-2,7-diazaspiro[3.5]nonan-7-yl)ethyl)-7-fluoro-1-methyl-2-oxo-1,2,3,4,5,6-hexahydrobenzo[b][1,4]diazocin-3-yl)amino)-6-methyl-4-(trifluorometh-yl)nicotinonitrile]: 490000 M⁻¹ s⁻¹.
Next, `C=CC(=O)N1CC2(CCCN(CCN3CC[C@H](Nc4nc(C)cc(C(F)(F)F)c4C#N)C(=O)N(C)c4cccc(F)c43)C2)C1` [Example 9, (S)-2-((6-(2-(2-Acryloyl-2,6-diazaspiro[3.5]nonan-6-yl)ethyl)-7-fluoro-1-methyl-2-oxo-1,2,3,4,5,6-hexahydrobenzo[b][1,4]diazocin-3-yl)amino)-6-methyl-4-(trifluorometh-yl)nicotinonitrile]: 300000 M⁻¹ s⁻¹; `C=CC(=O)N1CC(OC2CCN(CCN3CC[C@H](Nc4nc(C)cc(C(F)(F)F)c4C#N)C(=O)N(C)c4cccc(F)c43)CC2)C1` [Example 13, (S)-2-((6-(2-(4-((1-Acrylo-ylazetidin-3-yl)oxy)piper-idin-1-yl)ethyl)-7-fluoro-1-methyl-2-oxo-1,2,3,4,5,6-hexahydrobenzo[b][1,4]diazocin-3-yl)amino)-6-methyl-4-(trifluorometh-yl)nicotinonitrile]: 320000 M⁻¹ s⁻¹.
In the case of `C=CC(=O)N1CC(N2CCN(CCN3CC[C@H](Nc4nc(C)cc(C(F)(F)F)c4C#N)C(=O)N(C)c4cccc(F)c43)C[C@H]2C)C1` [Example 16, 2-(((S)-6-(2-((R)-4-(1-Acryloylazetidin-3-yl)-3-methylpiperazin-1-yl)-ethyl)-7-fluoro-1-methyl-2-oxo-1,2,3,4,5,6-hexa-hydrobenzo[b][1,4]diazocin-3-yl)amino)-6-methyl-4-(trifluorometh-yl)nicotinonitrile] it was 540000 M⁻¹ s⁻¹; in that of `C=CC(=O)N1CC(N2CCN(CCN3CC[C@H](Nc4nc(C)cc(C(F)(F)F)c4C#N)C(=O)N(C)c4cccc(F)c43)C[C@@H]2C)C1` [Example 17, 2-(((S)-6-(2-((S)-4-(1-Acryloylazetidin-3-yl)-3-methylpiperazin-1-yl)-ethyl)-7-fluoro-1-methyl-2-oxo-1,2,3,4,5,6-hexa-hydrobenzo[b][1,4]diazocin-3-yl)amino)-6-methyl-4-(trifluorometh-yl)nicotinonitrile], 570000 M⁻¹ s⁻¹.
With `C=CC(=O)N1CC(N2CCN(CCN3CC[C@H](Nc4nc(C)cc(C(F)(F)F)c4C#N)C(=O)N(C)c4ccccc43)CC2)C1` [Example 20, (S)-2-((6-(2-(4-(1-Acrylo-ylazetidin-3-yl)piperazin-1-yl)ethyl)-1-methyl-2-oxo-1,2,3,4,5,6-hexa-hydrobenzo[b][1,4]diazocin-3-yl)amino)-6-methyl-4-(trifluorometh-yl)nicotinonitrile], the kinact/KI was 500000 M⁻¹ s⁻¹.
In the case of `C=CC(=O)N1CC2(CN(CCN3CC[C@H](Nc4nc(C)cc(C(F)(F)F)c4C#N)C(=O)N(C)c4ccccc43)CCO2)C1` [Example 21, (S)-2-((6-(2-(2-Acryloyl-5-oxa-2,8-diazaspiro[3.5]nonan-8-yl)ethyl)-1-meth-yl-2-oxo-1,2,3,4,5,6-hexa-hydrobenzo[b][1,4]diazocin-3-yl)amino)-6-methyl-4-(trifluorometh-yl)nicotinonitrile] it was 1.2e+06 M⁻¹ s⁻¹; in that of `C=CC(=O)N1CC2(CN(CCN3CC[C@H](Nc4nc(C)cc(C(F)(F)F)c4C#N)C(=O)N(C)c4ccccc43)C2)C1` [Example 22, (S)-2-((6-(2-(6-Acryloyl-2,6-diazaspiro[3.3]heptan-2-yl)ethyl)-1-methyl-2-oxo-1,2,3,4,5,6-hexa-hydrobenzo[b][1,4]diazocin-3-yl)amino)-6-methyl-4-(trifluorometh-yl)nicotinonitrile], 500000 M⁻¹ s⁻¹.
Regarding `C=CC(=O)N1CC2(CN(CCN3CC[C@H](Nc4nc(C)cc(C(F)(F)F)c4C#N)C(=O)N(C)c4cccc(F)c43)CCN2)C1` [Example 23, (S)-2-((6-(2-(2-Acryloyl-2,5,8-triazaspiro[3.5]nonan-8-yl)ethyl)-7-fluoro-1-methyl-2-oxo-1,2,3,4,5,6-hexahydrobenzo[b][1,4]diazocin-3-yl)amino)-6-methyl-4-(trifluoromethyl)nicotinonitrile], the kinact/KI was found to be 940000 M⁻¹ s⁻¹.
Next, `Cc1cc(C(F)(F)F)c(C#N)c(N[C@H]2CCN(CCN3CC4(CN(C(=O)/C=C/CN(C)C)C4)OC3=O)c3c(F)cccc3N(C)C2=O)n1` [Example 24, (S,E)-2-((6-(2-(2-(4-(Dimethylamino)but-2-enoyl)-6-oxo-5-oxa-2,7-diazaspiro[3.4]octan-7-yl)ethyl)-7-fluoro-1-methyl-2-oxo-1,2,3,4,5,6-hexahydrobenzo[b][1,4]diazocin-3-yl)amino)-6-methyl-4-(trifluoromethyl)nicotinonitrile]: 630000 M⁻¹ s⁻¹.
In the case of `C#CCN1CCN(CCN2CC[C@H](Nc3nc(C)cc(C(F)(F)F)c3C#N)C(=O)N(C)c3cccc(F)c32)CC12CN(C(=O)C=C)C2` [Example 25, (S)-2-((6-(2-(2-Acryloyl-5-(prop-2-yn-1-yl)-2,5,8-triazaspiro[3.5]nonan-8-yl)ethyl)-7-fluoro-1-methyl-2-oxo-1,2,3,4,5,6-hexahydrobenzo[b][1,4]diazocin-3-yl)amino)-6-methyl-4-(trifluoromethyl)nicotinonitrile] it was 1.6e+06 M⁻¹ s⁻¹.
Next, `C#CCN1CCN(CCN2CC[C@H](Nc3nc(C)cc(C(F)(F)F)c3C#N)C(=O)N(C)c3cccc(F)c32)CC12CN(C(=O)/C=C/CN(C)C)C2` [Example 26, (S,E)-2-((6-(2-(2-(4-(Dimethylamino)but-2-enoyl)-5-(prop-2-yn-1-yl)-2,5,8-triazaspiro[3.5]nonan-8-yl)ethyl)-7-fluoro-1-methyl-2-oxo-1,2,3,4,5,6-hexahydrobenzo[b][1,4]diazocin-3-yl)amino)-6-methyl-4-(trifluoromethyl)nicotinonitrile]: 2.1e+06 M⁻¹ s⁻¹.
`C#CCOC(=O)N1CCN(CCN2CC[C@H](Nc3nc(C)cc(C(F)(F)F)c3C#N)C(=O)N(C)c3cccc(F)c32)CC12CN(C(=O)/C=C/CN(C)C)C2` [Example 27, (S,E)-Prop-2-yn-1-yl 8-(2-(4-((3-cyano-6-methyl-4-(trifluoromethyl)pyridin-2-yl)amino)-10-fluoro-6-methyl-5-oxo-3,4,5,6-tetrahydrobenzo[b][1,4]diazocin-1(2H)-yl)ethyl)-2-(4-(dimethylamino)but-2-enoyl)-2,5,8-triazaspiro[3.5]nonane-5-carboxylate]: the kinact/KI worked out at 940000 M⁻¹ s⁻¹.
